In US4328215A, “Method of reducing or avoiding the mutagenic activity of drugs” (The Johns Hopkins University, priority 1977, dated 1982):
Several values for one entry are separate records, joined by “and”; a condition that tells them apart may be missing. Equal values may be shown once.

Experiments:
[1] = Thin layer chromatography of urine extracts for mutagenic metabolite; format: in vivo, rats
Schistosoma mansoni [2] = test: Antischistosomal activity in infected mice; format: in vivo
Schistosoma mansoni [3] = test: Antischistosomal activity in infected mice; format: in vivo; remark: listed apart in the source
Protocol: Six groups of test mice, infected with Schistosoma mansoni, were treated as follows:
(1) a single dose of formulated CGP 4540 (10 mg/kg) with no antibiotic administered;
(2) single dose of formulated CGP 4540 as in (1) but preceded by 100 mg/kg of erythromycin (base);
(4) same as (1) but using a CGP 4540 dosage of 15 mg/kg;
(5) same as (4) but preceded by a 100 mg/kg dose of erythromycin; and
All drugs were administered by gastric intubation.

[4] = Conversion of CGP 4540 to mutagenic metabolite by route; format: in vivo; conditions: oral vs injected intramuscularly or intravenously
[5] = system: Salmonella typhimurium Strain TA 100; test: Urine analysis (Ames test) of mice treated with CGP 4540, strain TA 100, with/without S9;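 also: mouse urine gathered in 24 h periods after drug dosing, 0.1 and 0.25 ml aliquots plated on the bacteria, plates counted following 48 h at 37 °C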
Protocol: Mice are placed into a metabolism cage and control urines are collected on ice for 24 hours. These animals are then treated with the drug and urine is collected in refrigerated containers for the two subsequent 24-hour periods. The volume of the urine is measured and the urine is stored at -80° C. until assayed.
Urine specimens are thawed, centrifuged at 10,000×g for 15 minutes and sterilized by filtration through a 0.22 μm Millipore filter. Effects of 0.1 and 0.25 ml aliquots are tested on strains TA 100 with and without added S9 microsomal fraction. Plates are counted after incubation at 37° C. for 48 hours. The dose response at these two urine concentrations is used to calculate the number of revertants induced by the total volume of urine excreted in 24 hours. […] Aliquots of this mixture are tested after adjustment to pH 7 in the absence and the presence of the S9 fraction.
The mice were infected with S. typhimurium TA 100 as the test strain and the CGP 4540 was formulated as in Example 1. […] Three control mice were employed.

Salmonella typhimurium = test: Mutagenic activity of urines of treated germ-free and conventional rats (Ames); format: in vivo; conditions: for Revertants in excess of controls excreted in 24 hrs: 250 mg/kg oral
Protocol: Urine analysis (referred to above as the "Ames" test).
The schistosomicide 4-nitro-4'-[…] diphenylamine (CGP 4540) was orally administered to two germ-free rats and two conventional male Fisher rats weighing 220-240 grams. Urines from the thus treated animals were analyzed for mutagenic activity and assays were carried out as described in Journal of Pharmacology and Experimental Therapeutics, 200, 1-9 (1977) using the methodology of Ames et al (Mutat. Res., 31, 347-364). The mutagenic activities of the urines were determined in both the absence and presence of S9 (hepatic microsomal) fractions of phenobarbital pretreated rats (Ames et al, Proc. Nat. Acad. Sci, U.S.A., 71, 737-741, 1974) without and with preincubation with β-glucuronidase.
For test purposes, the isothiocyanate derivative was dissolved at 40° C. in a polyethoxylated vegetable oil (Emulphor El 620) to a final concentration of 50 mg/ml. Following sterilization by means of millipore filtration the mixture was administered by gastric intubation to two germ-free and two conventional male Fisher rats (weighing 220 to 240 gms) at a dose of 250 mg/kg of the isothiocyanate. One germ-free and one conventional rat that were given the filtered vehicle without the drug served as controls. The urines of each animal were collected for a period of 48 hours subsequent to administration of the drug or the filtered vehicle.
The germ-free rats used in the tests were kept in Tresder type plastic isolators. After administration of the isothiocyanate or the vehicle the germ-free rats were transferred into individual metabolism cages in the isolators.
The mutagenic activity determined for the test animals, expressed in terms of revertants in excess of the controls, is shown below: […]

bile ducts and the liver = test: Acute hepatotoxic effects; format: in vivo
Source text: A further advantage of the invention is that, at least in some instances, acute hepatotoxic effects resulting from use of an antischistosomal or other drug and caused by a metabolic product, may be prevented. […] Accordingly, in this particular situation the administration of the antibacterial agent not only prevents the mutagenic effects of a metabolic product of the intestinal bacterial flora but also the acute hepatotoxic effects which might otherwise be encountered.

[6] = CGP 4540 10 mg/kg single dose, no antibiotic, 196 mice, 10 mg/kg
[7] = CGP 4540 10 mg/kg, bacitracin 440 mg/kg
[8] = CGP 4540 10 mg/kg, erythromycylamine 100 mg/kg
[9] = CGP 4540 10 mg/kg, succinylsulfathiazole 1 g/kg + bacitracin 220 mg/kg
[10] = CGP 4540 15 mg/kg, erythromycin (base) 100 mg/kg
[11] = CGP 4540 15 mg/kg, erythromycylamine 100 mg/kg
[12] = CGP 4540 15 mg/kg, no antibiotic
[13] = CGP 4540 20 mg/kg, bacitracin 440 mg/kg
[14] = CGP 4540 20 mg/kg, no antibacterial
[15] = CGP 4540 20 mg/kg, succinylsulfathiazole 1 g/kg + bacitracin 220 mg/kg
[16] = CGP 4540 10 mg/kg, erythromycin (base) 100 mg/kg
[17] = succinylsulfathiazole 1 g/kg once daily for 3 days before CGP 4540

Structure (SMILES): O=[N+]([O-])c1ccc(Nc2ccc(N=C=S)cc2)cc1 [CGP 4540]
- Spot with Rf similar to isolated mutagenic metabolite in urine extract ([1]; conventional rats, 250 mg/kg oral, urine 0 to 24 hours): recognizable
- Spot with Rf similar to isolated mutagenic metabolite in urine extract ([1]; germ-free rats): No such spot appeared
- Reduction in number of worms (Schistosoma mansoni [2]; CGP 4540 10 mg/kg single dose, no antibiotic, 196 mice): 99%
- Mice with parasitological cures (Schistosoma mansoni [2]; [6]): 96%
- Mice with parasitological cures (Schistosoma mansoni [2]; [7]): 88%
- Reduction in no. of worms (Schistosoma mansoni [2]; [7]): 98%
- Mice with parasitological cures (Schistosoma mansoni [2]; [8]): 100%
- Mice with parasitological cures (Schistosoma mansoni [2]; [9]): 92%
- Reduction in no. of worms (Schistosoma mansoni [2]; [9]): 99%
- Mice with parasitological cures (Schistosoma mansoni [2]; [10]): 100%
- Reduction in number of worms (Schistosoma mansoni [2]; [10]): 100%
- Mice with parasitological cures (Schistosoma mansoni [2]; [11]): 100%
- Mice with parasitological cures (Schistosoma mansoni [2]; [12]): 100%
- Reduction in number of worms (Schistosoma mansoni [2]; [12]): 100%
- Mice with parasitological cures (Schistosoma mansoni [2]; [13]): 100%
- Reduction in no. of worms (Schistosoma mansoni [2]; [13]): 100%
- Mice with parasitological cures (Schistosoma mansoni [2]; [14]): 100%
- Reduction in no. of worms (Schistosoma mansoni [2]; [14]): 100%
- Mice with parasitological cures (Schistosoma mansoni [2]; [15]): 100%
- Reduction in no. of worms (Schistosoma mansoni [2]; [15]): 100%
- Curative antischistosomal activity after preceding antibiotic treatment (Schistosoma mansoni [2]; erythromycin base or erythromycylamine): not reduced
- Effectiveness against schistosomiasis, oral vs intramuscular (Schistosoma mansoni [2]; formulated CGP 4540, oral and intramuscular): about equally effective
- Antischistosomal activity after reduction of bacterial flora (Schistosoma mansoni [2]; succinylsulfathiazole 1 g/kg once daily for 3 days, oral): do not appear to affect the antischistosomal activity
- Mice with parasitological cures (Schistosoma mansoni [3]; [6]): 95%
- Mice with parasitological cures (Schistosoma mansoni [3]; [16]): 100%
- Reduction in number of worms (Schistosoma mansoni [3]; [16]): 100%
- Reduction in number of worms (Schistosoma mansoni [3]; [8]): 100%
- Reduction in number of worms (Schistosoma mansoni [3]; [11]): 100%
- Schistosomicidal activity of single low doses with or without antibacterial agents (Schistosoma mansoni [3]; single low doses, with vs without antibacterial agents): nearly or equally as effective
- Increase in conversion to mutagenic metabolite, oral vs intramuscular or intravenous [4]: 50%
- Urine revertants in excess of controls ([5]; CGP 4540 100 mg/kg oral, no pretreatment, day 1, +S9): 239 revertants per total 24 hour u
- Urine revertants in excess of controls ([5]; CGP 4540 100 mg/kg oral, no pretreatment, day 1, no S9): 56 revertants per total 24 hour u
- Urine revertants in excess of controls ([5]; CGP 4540 100 mg/kg oral, no pretreatment, day 2, +S9): 30 revertants per total 24 hour u
- Urine revertants in excess of controls ([5]; CGP 4540 100 mg/kg oral, no pretreatment, day 2, no S9): 11 revertants per total 24 hour u
- Urine revertants in excess of controls ([5]; CGP 4540 100 mg/kg oral, succinylsulfathiazole 1 g/kg, day 1, +S9): 108 revertants per total 24 hour u
- Urine revertants in excess of controls ([5]; CGP 4540 100 mg/kg oral, succinylsulfathiazole 1 g/kg, day 1, no S9): 37 revertants per total 24 hour u
- Urine revertants in excess of controls ([5]; CGP 4540 100 mg/kg oral, succinylsulfathiazole 1 g/kg, day 2, +S9): 12 revertants per total 24 hour u
- Urine revertants in excess of controls ([5]; CGP 4540 100 mg/kg oral, succinylsulfathiazole 1 g/kg, day 2, no S9): 0 revertants per total 24 hour u
- Urine revertants in excess of controls ([5]; CGP 4540 250 mg/kg oral, bacitracin 220 mg/kg, day 1, +S9): 96 revertants per total 24 hour u
- Urine revertants in excess of controls ([5]; CGP 4540 250 mg/kg oral, bacitracin 220 mg/kg, day 1, no S9): 31 revertants per total 24 hour u
- Urine revertants in excess of controls ([5]; CGP 4540 250 mg/kg oral, bacitracin 220 mg/kg, day 2, +S9): 10 revertants per total 24 hour u
- Urine revertants in excess of controls ([5]; CGP 4540 250 mg/kg oral, bacitracin 220 mg/kg, day 2, no S9): 4 revertants per total 24 hour u
- Urine revertants in excess of controls ([5]; CGP 4540 250 mg/kg oral, bacitracin 440 mg/kg, day 1, +S9): 0 revertants per total 24 hour u
- Urine revertants in excess of controls ([5]; CGP 4540 250 mg/kg oral, bacitracin 440 mg/kg, day 1, no S9): 0 revertants per total 24 hour u
- Urine revertants in excess of controls ([5]; CGP 4540 250 mg/kg oral, bacitracin 440 mg/kg, day 2, +S9): 0 revertants per total 24 hour u
- Urine revertants in excess of controls ([5]; CGP 4540 250 mg/kg oral, bacitracin 440 mg/kg, day 2, no S9): 0 revertants per total 24 hour u
- Urine revertants in excess of controls ([5]; CGP 4540 250 mg/kg oral, erythromycin base 100 mg/kg, day 1, +S9): 0 revertants per total 24 hour u
- Urine revertants in excess of controls ([5]; CGP 4540 250 mg/kg oral, erythromycin base 100 mg/kg, day 1, no S9): 0 revertants per total 24 hour u
- Urine revertants in excess of controls ([5]; CGP 4540 250 mg/kg oral, erythromycin base 100 mg/kg, day 2, +S9): 0 revertants per total 24 hour u
- Urine revertants in excess of controls ([5]; CGP 4540 250 mg/kg oral, erythromycin base 100 mg/kg, day 2, no S9): 0 revertants per total 24 hour u
- Urine revertants in excess of controls ([5]; CGP 4540 250 mg/kg oral, no pretreatment, day 1, +S9): 541 revertants per total 24 hour u
- Urine revertants in excess of controls ([5]; CGP 4540 250 mg/kg oral, no pretreatment, day 1, no S9): 120 revertants per total 24 hour u
- Urine revertants in excess of controls ([5]; CGP 4540 250 mg/kg oral, no pretreatment, day 2, +S9): 89 revertants per total 24 hour u
- Urine revertants in excess of controls ([5]; CGP 4540 250 mg/kg oral, no pretreatment, day 2, no S9): 32 revertants per total 24 hour u
- Urine revertants in excess of controls ([5]; CGP 4540 250 mg/kg oral, succinylsulfathiazole 1 g/kg + bacitracin 220 mg/kg, day 1, +S9): 0 revertants per total 24 hour u
- Urine revertants in excess of controls ([5]; CGP 4540 250 mg/kg oral, succinylsulfathiazole 1 g/kg + bacitracin 220 mg/kg, day 1, no S9): 0 revertants per total 24 hour u
- Urine revertants in excess of controls ([5]; CGP 4540 250 mg/kg oral, succinylsulfathiazole 1 g/kg + bacitracin 220 mg/kg, day 2, +S9): 0 revertants per total 24 hour u
- Urine revertants in excess of controls ([5]; CGP 4540 250 mg/kg oral, succinylsulfathiazole 1 g/kg + bacitracin 220 mg/kg, day 2, no S9): 0 revertants per total 24 hour u
- Urine revertants in excess of controls ([5]; CGP 4540 250 mg/kg oral, succinylsulfathiazole 1 g/kg, day 1, +S9): 269 revertants per total 24 hour u
- Urine revertants in excess of controls ([5]; CGP 4540 250 mg/kg oral, succinylsulfathiazole 1 g/kg, day 1, no S9): 73 revertants per total 24 hour u
- Urine revertants in excess of controls ([5]; CGP 4540 250 mg/kg oral, succinylsulfathiazole 1 g/kg, day 2, +S9): 30 revertants per total 24 hour u
- Urine revertants in excess of controls ([5]; CGP 4540 250 mg/kg oral, succinylsulfathiazole 1 g/kg, day 2, no S9): 7 revertants per total 24 hour u
- Mutagenic urinary metabolite [5, 17]: very marked decrease
- Mutagenic activity after incubation of urines with β-glucuronidase (Salmonella typhimurium; 3 hrs at 37° C., conventional rats): No further increase in mutagenic activity
- Revertants in excess of controls excreted in 24 hrs (Salmonella typhimurium; conventional rats, urine 0-24 hrs, +S9, 250 mg/kg): 4,900 revertants excreted in 24 hrs and 5,000 revertants excreted in 24 hrs
- Revertants in excess of controls excreted in 24 hrs (Salmonella typhimurium; conventional rats, urine 0-24 hrs, -S9, 250 mg/kg): 3,800 revertants excreted in 24 hrs and 3,750 revertants excreted in 24 hrs
- Revertants in excess of controls excreted in 24 hrs (Salmonella typhimurium; conventional rats, urine 24-48 hrs, +S9, 250 mg/kg): 2,800 revertants excreted in 24 hrs and 3,050 revertants excreted in 24 hrs
- Revertants in excess of controls excreted in 24 hrs (Salmonella typhimurium; conventional rats, urine 24-48 hrs, -S9, 250 mg/kg): 1,600 revertants excreted in 24 hrs and 1,200 revertants excreted in 24 hrs
- Revertants in excess of controls excreted in 24 hrs (Salmonella typhimurium; germ-free rats, urine 0-24 hrs, +S9): 0 revertants excreted in 24 hrs
- Revertants in excess of controls excreted in 24 hrs (Salmonella typhimurium; germ-free rats, urine 0-24 hrs, -S9): 0 revertants excreted in 24 hrs
- Revertants in excess of controls excreted in 24 hrs (Salmonella typhimurium; germ-free rats, urine 24-48 hrs, +S9): 0 revertants excreted in 24 hrs
- Revertants in excess of controls excreted in 24 hrs (Salmonella typhimurium; germ-free rats, urine 24-48 hrs, -S9): 0 revertants excreted in 24 hrs
- Urinary mutagenic metabolite in germ-free rats (Salmonella typhimurium; urines of germ-free rats (1) and (2)): no mutagenic metabolite was detectable
- Mutagenic activity in the host mediated assay (S. typhimurium TA 100; in vivo, po): no mutagenic activity was detectable
- Mutant colonies found in the host-mediated assay (S. typhimurium TA 100; [17]): very marked decrease
- Lesions in bile ducts and liver (bile ducts and the liver; 500 mg/kg (50 times the curative dose)): some destructive lesions may be produced in the bile ducts and the liver
- Lesions in bile ducts and liver with antibacterial agent (bile ducts and the liver; 500 mg/kg, co-administration of erythromycin): these lesions are prevented
